#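 Five concentrations, 48 hours, 96-well plates. At the TGI there is no net growth.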
# What was measured:
# Experiment in all cases: NCI-60 cell line screen, 48 h
# [1] = tested on: TK-10 renal
# [2] = tested on: HOP-62 NSCLC
# [3] = tested on: KM20L2 colon
# [4] = tested on: IGROV1 ovarian
# [5] = tested on: HL-60(TB) leukemia
# [6] = tested on: CAKI-1 renal
# [7] = tested on: HCT-116 colon
# [8] = tested on: U251 CNS
# [9] = tested on: NCI-H23 lung
# [10] = tested on: LOX IMVI melanoma
# [11] = tested on: SW-620 colon
# [12] = tested on: RXF-631 renal
# [13] = tested on: SR leukemia
# [14] = tested on: NCI-H226 lung
# [15] = tested on: HCC-2998 colon
# [16] = tested on: HOP-92 NSCLC
# [17] = tested on: SF-295 CNS
# [18] = tested on: SF-539 CNS
# [19] = tested on: SN12C renal
# [20] = tested on: SK-MEL-28 melanoma
# [21] = tested on: XF 498 CNS
# [22] = tested on: NCI-H522 lung
# [23] = tested on: NCI-H460 lung
# [24] = tested on: CCRF-CEM leukemia
# [25] = tested on: DMS 273 small cell lung
# [26] = tested on: MOLT-4 leukemia
# [27] = tested on: 786-0 renal
# [28] = tested on: RXF 393 renal
# [29] = tested on: SNB-19 CNS
# [30] = tested on: OVCAR-8 ovarian
# [31] = tested on: M19-MEL melanoma
# [32] = tested on: HT29 colon
# [33] = tested on: EKVX NSCLC
# [34] = tested on: ACHN renal
# [35] = tested on: COLO 205 colon
# [36] = tested on: UACC-257 melanoma
# [37] = tested on: A498 renal
# [38] = tested on: MALME-3M melanoma
# [39] = tested on: K-562 leukemia
# [40] = tested on: SK-MEL-2 melanoma
# [41] = tested on: A549 NSCLC
# [42] = tested on: SNB-78 CNS
# [43] = tested on: KM12 colon
# [44] = tested on: HOP-18 NSCLC
# [45] = tested on: OVCAR-3 ovarian
# [46] = tested on: SK-OV-3 ovarian
# [47] = tested on: OVCAR-5 ovarian
# [48] = tested on: OVCAR-4 ovarian
# [49] = tested on: SF-268 CNS
# [50] = tested on: SNB-75 CNS
# [51] = tested on: HCT-15 colon
# [52] = tested on: DLD-1 colon
# [53] = tested on: UO-31 renal
# [54] = tested on: RPMI-8226 leukemia
# [55] = tested on: M14 melanoma
# [56] = tested on: SK-MEL-5 melanoma
# [57] = tested on: DMS 114 small cell lung
# [58] = tested on: LXFL 529 NSCLC
# [59] = tested on: UACC-62 melanoma
smiles,measurement,setting,value
COC(=O)c1c[nH]cc1CCCCc1c[nH]cc1C(=O)OC,TGI,[1],> 100 µM
same,TGI,[2],> 100 µM
same,TGI,[3],> 100 µM
same,TGI,[4],> 100 µM
same,TGI,[5],> 100 µM
same,TGI,[6],> 100 µM
same,TGI,[7],> 100 µM
same,TGI,[8],> 100 µM
same,TGI,[9],> 100 µM
same,TGI,[10],> 100 µM
same,TGI,[11],> 100 µM
same,TGI,[12],> 100 µM
same,TGI,[13],> 100 µM
same,TGI,[14],> 100 µM
same,TGI,[15],> 100 µM
same,TGI,[16],> 100 µM
same,TGI,[17],> 100 µM
same,TGI,[18],> 100 µM
same,TGI,[19],> 100 µM
same,TGI,[20],> 100 µM
same,TGI,[21],> 100 µM
same,TGI,[22],> 100 µM
same,TGI,[23],> 100 µM
same,TGI,[24],> 100 µM
same,TGI,[25],> 100 µM
same,TGI,[26],> 100 µM
same,TGI,[27],> 100 µM
same,TGI,[28],> 100 µM
same,TGI,[29],> 100 µM
same,TGI,[30],> 100 µM
same,TGI,[31],> 100 µM
same,TGI,[32],> 100 µM
same,TGI,[33],> 100 µM
same,TGI,[34],> 100 µM
same,TGI,[35],> 100 µM
same,TGI,[36],> 100 µM
same,TGI,[37],> 100 µM
same,TGI,[38],> 100 µM
same,TGI,[39],> 100 µM
same,TGI,[40],> 100 µM
same,TGI,[41],> 100 µM
same,TGI,[42],> 100 µM
same,TGI,[43],> 100 µM
same,TGI,[44],> 100 µM
same,TGI,[45],> 100 µM
same,TGI,[46],> 100 µM
same,TGI,[47],> 100 µM
same,TGI,[48],> 100 µM
same,TGI,[49],> 100 µM
O=C1CC2CCN(C(=O)c3ccccc3)CC2CCN1 (stereo not given),TGI,[1],> 100 µM
same,TGI,[2],> 100 µM
same,TGI,[3],> 100 µM
same,TGI,[4],> 100 µM
same,TGI,[5],> 100 µM
same,TGI,[7],> 100 µM
same,TGI,[50],> 100 µM
same,TGI,[51],> 100 µM
same,TGI,[8],> 100 µM
same,TGI,[9],> 100 µM
same,TGI,[10],> 100 µM
same,TGI,[52],> 100 µM
same,TGI,[11],> 100 µM
same,TGI,[53],> 100 µM
same,TGI,[13],> 100 µM
same,TGI,[14],> 100 µM
same,TGI,[15],> 100 µM
same,TGI,[54],> 100 µM
same,TGI,[16],> 100 µM
same,TGI,[17],> 100 µM
same,TGI,[18],> 100 µM
same,TGI,[19],> 100 µM
same,TGI,[20],> 100 µM
same,TGI,[21],> 100 µM
same,TGI,[55],> 100 µM
same,TGI,[23],> 100 µM
same,TGI,[24],> 100 µM
same,TGI,[25],> 100 µM
same,TGI,[26],> 100 µM
same,TGI,[27],> 100 µM
same,TGI,[56],> 100 µM
same,TGI,[28],> 100 µM
same,TGI,[29],> 100 µM
same,TGI,[57],> 100 µM
same,TGI,[30],> 100 µM
same,TGI,[31],> 100 µM
same,TGI,[32],> 100 µM
same,TGI,[33],> 100 µM
same,TGI,[34],> 100 µM
same,TGI,[35],> 100 µM
same,TGI,[36],> 100 µM
same,TGI,[37],> 100 µM
same,TGI,[38],> 100 µM
same,TGI,[58],> 100 µM
same,TGI,[39],> 100 µM
same,TGI,[40],60.2 µM
same,TGI,[41],> 100 µM
same,TGI,[42],> 100 µM
same,TGI,[59],> 100 µM
same,TGI,[43],> 100 µM
same,TGI,[44],> 100 µM
same,TGI,[45],> 100 µM
same,TGI,[46],> 100 µM
same,TGI,[47],> 100 µM
same,TGI,[48],> 100 µM
same,TGI,[49],> 100 µM
COc1ccc2nc3cc(Cl)ccc3c(Sc3ccc(NC(C)=O)cc3)c2c1,TGI,[1],> 51.1 µM
same,TGI,[2],> 60.2 µM
same,TGI,[3],> 42.1 µM
same,TGI,[4],> 56 µM
same,TGI,[5],52 µM
same,TGI,[6],> 50.6 µM
same,TGI,[7],> 45.3 µM
same,TGI,[50],> 54.9 µM
same,TGI,[8],> 20.7 µM
same,TGI,[9],> 33.5 µM
same,TGI,[10],11.4 µM
same,TGI,[52],> 24.1 µM
same,TGI,[11],> 22.3 µM
same,TGI,[53],> 33.4 µM
same,TGI,[12],> 100 µM
same,TGI,[13],16.1 µM
same,TGI,[14],> 30.9 µM
same,TGI,[15],5.93 µM
same,TGI,[54],83.8 µM
same,TGI,[16],> 27 µM
same,TGI,[17],> 51.2 µM
same,TGI,[18],27.3 µM
same,TGI,[19],> 25.6 µM
same,TGI,[20],38.7 µM
same,TGI,[21],> 25.2 µM
same,TGI,[22],7.85 µM
same,TGI,[55],> 38.5 µM
same,TGI,[23],> 47 µM
same,TGI,[24],> 100 µM
same,TGI,[25],21.6 µM
same,TGI,[26],84.4 µM
same,TGI,[27],> 20.1 µM
same,TGI,[56],> 45.5 µM
same,TGI,[28],> 27.9 µM
same,TGI,[29],> 26.4 µM
same,TGI,[57],14.1 µM
same,TGI,[30],> 21.1 µM
same,TGI,[31],> 22.2 µM
same,TGI,[32],> 100 µM
same,TGI,[33],> 23.8 µM
same,TGI,[34],18.7 µM
same,TGI,[35],> 34.2 µM
same,TGI,[36],> 41 µM
same,TGI,[37],> 60.9 µM
same,TGI,[38],> 51.8 µM
same,TGI,[58],> 23.5 µM
same,TGI,[39],> 100 µM
same,TGI,[40],> 26.4 µM
same,TGI,[41],> 100 µM
same,TGI,[42],62.1 µM
same,TGI,[59],> 42.1 µM
same,TGI,[43],> 35.2 µM
same,TGI,[44],> 53.7 µM
same,TGI,[45],> 22.8 µM
same,TGI,[46],> 61.9 µM
same,TGI,[47],> 45.7 µM
same,TGI,[48],> 52.6 µM
same,TGI,[49],> 40 µM
C[P+](C)(C)c1ccccc1,TGI,[1],> 100 µM
same,TGI,[2],> 100 µM
same,TGI,[3],> 100 µM
same,TGI,[4],> 100 µM
same,TGI,[5],> 100 µM
same,TGI,[6],> 100 µM
same,TGI,[7],> 100 µM
same,TGI,[50],> 100 µM
same,TGI,[51],> 100 µM
same,TGI,[8],> 100 µM
same,TGI,[9],> 100 µM
same,TGI,[10],> 100 µM
same,TGI,[52],> 100 µM
same,TGI,[11],> 100 µM
same,TGI,[53],> 100 µM
same,TGI,[12],> 100 µM
same,TGI,[13],> 100 µM
same,TGI,[14],> 100 µM
same,TGI,[15],> 100 µM
same,TGI,[54],> 100 µM
same,TGI,[16],> 100 µM
same,TGI,[17],> 100 µM
same,TGI,[18],> 100 µM
same,TGI,[19],> 100 µM
same,TGI,[20],> 100 µM
same,TGI,[21],> 100 µM
same,TGI,[55],> 100 µM
same,TGI,[23],> 100 µM
same,TGI,[24],> 100 µM
same,TGI,[25],> 100 µM
same,TGI,[26],> 100 µM
same,TGI,[27],> 100 µM
same,TGI,[56],> 100 µM
same,TGI,[28],> 100 µM
same,TGI,[29],> 100 µM
same,TGI,[57],> 100 µM
same,TGI,[30],> 100 µM
same,TGI,[31],> 100 µM
same,TGI,[32],> 100 µM
same,TGI,[33],> 100 µM
same,TGI,[34],> 100 µM
same,TGI,[35],> 100 µM
same,TGI,[36],> 100 µM
same,TGI,[38],> 100 µM
same,TGI,[58],> 100 µM
same,TGI,[39],> 100 µM
same,TGI,[40],> 100 µM
same,TGI,[41],> 100 µM
same,TGI,[59],> 100 µM
same,TGI,[43],> 100 µM
same,TGI,[44],> 100 µM
same,TGI,[45],> 100 µM
same,TGI,[46],> 100 µM
same,TGI,[47],> 100 µM
same,TGI,[48],> 100 µM
same,TGI,[49],> 100 µM

# Reference: PubChem BioAssay (NCI)
